The source of these data is patent US12018001B2, “Pyrimidine cyclohexenyl glucocorticoid receptor modulators” (priority 2018, dated 2024).

For this assay, the target named is T1, glucocorticoid receptor (Homo sapiens, UniProt P04150).
T1 construct: host or cells: HepG2
T1 sequence (P04150 1-777): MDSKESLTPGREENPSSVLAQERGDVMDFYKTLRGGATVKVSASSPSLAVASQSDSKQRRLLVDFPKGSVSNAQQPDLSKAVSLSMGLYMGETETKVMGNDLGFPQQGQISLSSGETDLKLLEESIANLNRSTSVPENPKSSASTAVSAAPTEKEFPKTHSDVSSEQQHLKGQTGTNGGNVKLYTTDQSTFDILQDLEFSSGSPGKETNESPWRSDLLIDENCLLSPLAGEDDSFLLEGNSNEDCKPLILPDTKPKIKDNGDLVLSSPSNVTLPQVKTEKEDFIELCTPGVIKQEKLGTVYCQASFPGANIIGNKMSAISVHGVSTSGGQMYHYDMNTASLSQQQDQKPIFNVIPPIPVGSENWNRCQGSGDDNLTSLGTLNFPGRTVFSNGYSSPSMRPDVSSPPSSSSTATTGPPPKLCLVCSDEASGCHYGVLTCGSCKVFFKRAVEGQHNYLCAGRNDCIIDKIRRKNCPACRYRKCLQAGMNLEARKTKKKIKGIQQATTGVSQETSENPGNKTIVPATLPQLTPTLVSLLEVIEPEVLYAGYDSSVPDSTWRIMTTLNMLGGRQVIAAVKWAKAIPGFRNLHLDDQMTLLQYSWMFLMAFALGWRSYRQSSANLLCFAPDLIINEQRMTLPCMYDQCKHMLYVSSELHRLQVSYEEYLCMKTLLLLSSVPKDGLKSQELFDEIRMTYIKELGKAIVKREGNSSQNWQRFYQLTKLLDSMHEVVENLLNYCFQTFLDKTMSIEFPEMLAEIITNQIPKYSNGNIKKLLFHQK
In words: Hep G2 TAT assay: induction of TAT by dexamethasone in HepG2 cells. Type of assay: cell-based. As to the method: Glucocorticoid mediated activation of TAT occurs by transactivation of glucocorticoid response elements in the TAT promoter by glucocorticoid receptor-agonist complex.
TAT activity was measured as outlined in the literature by A. Ali et al., J. Med. Chem., 2004, 47, 2441-2452.
HepG2 cells were cultured using MEME media supplemented with 10% (v/v) foetal bovine serum; 2 mM L-glutamine and 1% (v/v) NEAA at 37° C., 5%/95% (v/v) CO2/air. The HepG2 cells were counted and adjusted to yield a density of 0.125×10^6 cells/ml in RPMI 1640 without phenol red, 10% (v/v) charcoal stripped FBS, 2 mM L-glutamine and seeded at 25,000 cells/well in 200 μl into 96 well, sterile, tissue culture micro titre plates, and incubated at 37° C., 5% CO2 for 24 hours
Growth media was removed and replaced with assay media {RPMI 1640 without phenol red, 2 mM L-glutamine+10 μM forskolin}. […] Compounds were serially half log diluted in 100% (v/v) dimethylsulphoxide from a 10 mM stock.
HepG2 cells were then lysed with 30 μl of cell lysis buffer containing a protease inhibitor cocktail for 15 minutes at 4° C. 155 μl of substrate mixture was then added containing 5.4 mM Tyrosine sodium salt, 10.8 mM alpha ketoglutarate and 0.06 mM pyridoxal 5′ phosphate in 0.1 M potassium phosphate buffer (pH 7.4). After 2 hours incubation at 37° C. the reaction was terminated by the addition of 15 μl of 10 M aqueous potassium hydroxide solution, and the plates incubated for a further 30 minutes at 37° C. The TAT activity product was measured by absorbance at λ 340 nm.
[compound] and fitting the data to a 4 parameter logistic equation.

In general, Ki refers to the equilibrium dissociation constant of an inhibitor or competing ligand from its target. Read a low Ki as tighter binding. Take `N#Cc1ccc(C2=CC[C@@H](c3[nH]c(=O)[nH]c(=O)c3Cc3ccccc3)CC2)c(Cl)c1` (single isomer, unassigned) [Example 40]: the affinity corresponds to a Ki of 42 nM.

`Cn1ncc2cccc(C3=CCC(c4[nH]c(=O)[nH]c(=O)c4Cc4ccccc4)CC3)c21` (centres unmarked) [Example 89] had a Ki of 433 nM. For the compound `CN(C)S(=O)(=O)c1ccc(C2=CCC(c3[nH]c(=O)[nH]c(=O)c3Cc3ccccc3)CC2)c(Cl)c1` (centres unmarked) [Example 103], the affinity corresponds to a Ki of 258 nM. Then `C[C@@H]1CCCN(c2ncccc2C2=CCC(c3[nH]c(=O)[nH]c(=O)c3Cc3ccccc3)CC2)C1` (some centres unmarked) [Example 47], with 400 nM. Then `O=c1[nH]c(C2CC=C(c3ccc(OCC(F)(F)F)cc3Cl)CC2)c(Cc2ccccc2)c(=O)[nH]1` (centres unmarked) [Example 87], with 453 nM; and `CC1(C)CCCN(c2ncccc2C2=CCC(c3[nH]c(=O)[nH]c(=O)c3Cc3ccccc3)CC2)C1` (centres unmarked) [Example 46], with 300 nM. Then `COc1cc(Cl)ccc1C1=CCC(c2[nH]c(=O)[nH]c(=O)c2Cc2ccccc2)CC1` (centres unmarked) [Example 7], with 38 nM; and `CS(=O)(=O)c1ccc(C2=CCC(c3[nH]c(=O)[nH]c(=O)c3Cc3cccc(C(F)(F)F)c3)CC2)c(F)c1` (centres unmarked) [Example 116], with 170 nM; and `CNS(=O)(=O)c1ccc(C2=CCC(c3[nH]c(=O)[nH]c(=O)c3Cc3ccccc3)CC2)c(F)c1` (centres unmarked) [Example 98], with 110 nM. With `Cc1ccc(CO)cc1C1=CCC(c2[nH]c(=O)[nH]c(=O)c2Cc2ccccc2)CC1` (centres unmarked) [Example 22], the Ki is 330 nM. The compound `C[C@H]1CCCN(c2ncccc2C2=CCC(c3[nH]c(=O)[nH]c(=O)c3Cc3ccccc3)CC2)C1` (some centres unmarked) [Example 48] gave a Ki of 130 nM. Then `Cc1ccccc1C1=CCC(c2[nH]c(=O)[nH]c(=O)c2Cc2ccccc2)CC1` (centres unmarked) [Example 13], with 83 nM; and `O=c1[nH]c([C@@H]2CC=C(c3ccc(Cl)cc3C(F)(F)F)CC2)c(Cc2ccccc2)c(=O)[nH]1` (single isomer, unassigned) [Example 110], with 38 nM. Then `O=c1[nH]c(C2CC=C(c3ccccc3OC(F)(F)F)CC2)c(Cc2ccccc2)c(=O)[nH]1` (centres unmarked) [Example 26], with 50 nM; and `CC(C)Oc1ccc(C2=CCC(c3[nH]c(=O)[nH]c(=O)c3Cc3ccccc3)CC2)c(Cl)c1` (centres unmarked) [Example 52], with 568 nM. With `CCOc1ccc(C2=CCC(c3[nH]c(=O)[nH]c(=O)c3Cc3ccccc3)CC2)c(F)c1` (centres unmarked) [Example 78], affinity was put at a Ki of 175 nM.

In the case of `CCS(=O)(=O)c1ccc(C2=CCC(c3[nH]c(=O)[nH]c(=O)c3Cc3ccccc3)CC2)c(F)c1` (centres unmarked) [Example 101], the Ki is 65 nM. Then `CO[C@H]1CCCN(c2ncccc2C2=CCC(c3[nH]c(=O)[nH]c(=O)c3Cc3ccccc3)CC2)C1` (some centres unmarked) [Example 49], with 280 nM; and `CCOc1ccc(C2=CCC(c3[nH]c(=O)[nH]c(=O)c3Cc3ccccc3)CC2)c(C(F)(F)F)c1` (centres unmarked) [Example 53], with 51 nM; and `CS(=O)(=O)c1ccc(C2=CCC(c3[nH]c(=O)[nH]c(=O)c3Cc3ccccc3)CC2)c(F)c1` (centres unmarked) [Example 73], with 70 nM. Then `O=c1[nH]c(C2CC=C(c3cccc(Cl)c3)CC2)c(Cc2ccccc2)c(=O)[nH]1` (centres unmarked) [Example 16], with 640 nM; and `CC(C)n1cc(C2=CCC(c3[nH]c(=O)[nH]c(=O)c3Cc3ccccc3)CC2)c(C(F)(F)F)n1` (centres unmarked) [Example 75], with 223 nM; and `O=c1[nH]c(C2CC=C(c3cccnc3N3CCC(F)(F)CC3)CC2)c(Cc2ccccc2)c(=O)[nH]1` (centres unmarked) [Example 45], with 970 nM.

In turn, `O=c1[nH]c(C2CC=C(c3ccc(OC(F)(F)F)cc3Cl)CC2)c(Cc2ccccc2)c(=O)[nH]1` (centres unmarked) [Example 60] returned a Ki of 41 nM. In the case of `O=c1[nH]c([C@H]2CC=C(c3ccc(Cl)cc3C(F)(F)F)CC2)c(Cc2ccccc2)c(=O)[nH]1` (single isomer, unassigned) [Example 109] it was 30 nM. In the case of `O=c1[nH]c(C2CC=C(c3cc(CO)ccc3Cl)CC2)c(Cc2ccccc2)c(=O)[nH]1` (centres unmarked) [Example 28] it was 150 nM; in that of `CS(=O)(=O)c1ccccc1C1=CCC(c2[nH]c(=O)[nH]c(=O)c2Cc2ccccc2)CC1` (centres unmarked) [Example 15], 520 nM; in that of `CN(C)c1ncc(C2=CCC(c3[nH]c(=O)[nH]c(=O)c3Cc3ccccc3)CC2)cn1` (centres unmarked) [Example 55], 1480 nM. In the case of `O=c1[nH]c(C2CC=C(c3cncs3)CC2)c(Cc2ccccc2)c(=O)[nH]1` (centres unmarked) [Example 4] it was 1300 nM; in that of `COc1ccc(C2=CCC(c3[nH]c(=O)[nH]c(=O)c3Cc3ccccc3)CC2)c(Cl)c1` (centres unmarked) [Example 29], 12 nM; in that of `CS(=O)(=O)c1ccc(C2=CCC(c3[nH]c(=O)[nH]c(=O)c3Cc3cccc(F)c3F)CC2)c(F)c1` (centres unmarked) [Example 115, 5-(2,3-difluorobenzyl)-6-(2′-fluoro-4′-(methylsulfonyl)-2,3,4,5-tetrahydro-[1,1′-biphenyl]-4-yl)pyrimidine-2,4(1H,3H)-dione], 85 nM.

`O=c1[nH]c(C2CC=C(c3ccc(C4CC4)cc3C(F)(F)F)CC2)c(Cc2ccccc2)c(=O)[nH]1` (centres unmarked) [Example 112, 5-benzyl-6-(4′-cyclopropyl-2′-(trifluoromethyl)-2,3,4,5-tetrahydro-[1,1′-biphenyl]-4-yl)pyrimidine-2,4(1H,3H)-dione] came in with a Ki of 333 nM.

As to `O=c1[nH]c(C2CC=C(c3ccc(Cl)cc3Cl)CC2)c(Cc2ccccc2)c(=O)[nH]1` (centres unmarked) [Example 6], the inhibitory constant (Ki) was 65 nM. In the case of `O=c1[nH]c(C2CC=C(c3ccc(OCC4CC4)cc3Cl)CC2)c(Cc2ccccc2)c(=O)[nH]1` (centres unmarked) [Example 85, 5-benzyl-6-(2′-chloro-4′-(cyclopropylmethoxy)-2,3,4,5-tetrahydro-[1,1′-biphenyl]-4-yl)pyrimidine-2,4(1H,3H)-dione] it was 1400 nM; in that of `CC(C)S(=O)(=O)c1ccc(C2=CCC(c3[nH]c(=O)[nH]c(=O)c3Cc3ccccc3)CC2)c(F)c1` (centres unmarked) [Example 102], 270 nM; in that of `CS(=O)(=O)c1ccc(C2=CCC(c3[nH]c(=O)[nH]c(=O)c3Cc3cccc(N4CCCC4)n3)CC2)c(F)c1` (centres unmarked) [Example 117], 559 nM. As for `COc1ccc(F)cc1C1=CCC(c2[nH]c(=O)[nH]c(=O)c2Cc2ccccc2)CC1` (centres unmarked) [Example 12], the Ki came to 350 nM.

`O=c1[nH]c(C2CC=C(c3ccc(Cl)cc3F)CC2)c(Cc2ccccc2)c(=O)[nH]1` (centres unmarked) [Example 81] had a Ki of 400 nM. In the case of `O=c1[nH]c(C2CC=C(c3ccc(F)cc3)CC2)c(Cc2ccccc2)c(=O)[nH]1` (centres unmarked) [Example 3] it was 460 nM.

Turning to `O=c1[nH]c(C2CC=C(c3ccc(OC4CC4)cc3F)CC2)c(Cc2ccccc2)c(=O)[nH]1` (centres unmarked) [Example 94], the Ki came out at 200 nM.

Consider `O=c1[nH]c(C2CC=C(c3cccnc3N3CCCCC3)CC2)c(Cc2ccccc2)c(=O)[nH]1` (centres unmarked) [Example 43, 5-Benzyl-6-(4-(2-(piperidin-1-yl)pyridin-3-yl)cyclohex-3-en-1-yl)pyrimidine-2,4(1H,3H)-dione], for which the Ki came out at 150 nM.

The compound `O=c1[nH]c(C2CC=C(c3ccccc3C(F)(F)F)CC2)c(Cc2ccccc2)c(=O)[nH]1` (centres unmarked) [Example 11] came in with a Ki of 14 nM. `Cc1ccncc1C1=CCC(c2[nH]c(=O)[nH]c(=O)c2Cc2ccccc2)CC1` (centres unmarked) [Example 30] gave a Ki of 50 nM. In the case of `Cn1ncc2c(C3=CCC(c4[nH]c(=O)[nH]c(=O)c4Cc4ccccc4)CC3)cccc21` (centres unmarked) [Example 61] it was 485 nM.
